Laboratory results as given in article PMC7931078 (Molecules, 2021).
≈ marks a conversion by molar mass, not a printed value. Entries after “also recorded” stand apart in the source; their conditions may differ. Where two headings read alike, the source gives them in different places.

Legend:
[1] = tested on: Mycobacterium tuberculosis pMSp12::GFP; test: microbe, parasite or virus in culture; format: cell-based
[2] = tested on: 3D7 strain of Plasmodium falciparum; test: In vitro antiplasmodial assay (pLDH); format: cell-based
[3] = tested on: Trypanosoma brucei brucei 427 trypomastigotes; test: In vitro anti-trypanosomal assay; format: cell-based; settings: 24 h, 427 strain, read-out: IC50 T. b. brucei
Experimental: Trypanosoma brucei brucei 427 trypomastigotes were cultured in iscove’s modified Dulbecco’s medium (IMDM; Lonza, Basel, Switzerland) supplemented with 10% fetal calf serum, HMI-9 supplement, hypoxanthine and penicillin/streptomycin at 37 °C in a 5% CO2 incubator. Serial dilutions of test compounds were incubated with the parasites in 96-well plates for 24 h and residual parasite viability in the wells determined as previously reported.

HEK293 cells = test: In vitro cytotoxicity assay; format: cell-based; settings: Homo sapiens, HEK293, read-out: IC50 HEK293
S. aureus (MRSA) = test: microbe, parasite or virus in culture; format: cell-based; settings: Staphylococcus aureus, read-out: MIC against S. aureus (MRSA)
[4] = tested on: ESKAPE (E. faecium, A. baumanni, K. pneumoniae, P. aeruginosa, S. aureus) pathogens; test: Antibacterial broth microdilution, ESKAPE pathogens; format: cell-based; settings: colistin and vancomycin as standards
A. baumanni = test: Antibacterial broth microdilution, A. baumanni; format: cell-based; settings: read-out: MIC against A. baumanni
[5] = Mycobacterium tuberculosis, H37RV, 336 h
[6] = Plasmodium falciparum, 3D7, 48 h, read-out: IC50 Pf 3D7, chloroquine sensitive strain 3D7, 48 h, pLDH
[7] = read-out: IC50 Pf 3D7, chloroquine sensitive strain 3D7, 48 h, pLDH

Compound | MIC90 [1] [µM] | MIC90 [1, 5] [µM] | IC50 [2, 6] [µM] | IC50 ([3]; Trypanosoma brucei) [µM] | IC50 (HEK293 cells) [µg/mL] | IC50 [3] [µM] | melting point [°C] | IC50 [2, 7] [µM] | MIC (S. aureus (MRSA)) [µg/mL] | activity against ESKAPE pathogens (in words) [4] | IC50 Pf 3D7 ([2]; chloroquine sensitive strain 3D7, 48 h, pLDH) | MIC (A. baumanni) [µg/mL]
Cn1c(=O)c2c(ncn2Cc2ccc3c(c2)c(=O)c(C(=O)NCCOCCO)cn3Cc2ccc(Br)cc2)n(C)c1=O [Compound 4h, 1-(4-Bromobenzyl)-6-((1,3-dimethyl-2,6-dioxo-1,2,3,6-tetrahydro-7H-purin-7-yl)methyl)-N-(2-(2-hydroxyethoxy)ethyl)-4-oxo-1,4-dihydroquinolone-3-carboxamide] | >125 | > 125 | 0.68 | > 20 | > 32 | – | – | – | – | – | – | –
CCOC(=O)c1cn(Cc2ccccc2)c2ccc(N)cc2c1=O [Compound 12, Ethyl 6-amino-1-benzyl-4-oxo-1,4-dihydroquinolone-3-carboxylate] | – | > 125 | 10 | > 20 | > 32 | – | – | – | – | – | – | –
CCOC(=O)c1cn(CC)c2ccc(OCc3ccc(C(F)(F)F)cc3)cc2c1=O [Compound 7a, Ethyl 1-ethyl-4-oxo-6-((4-(trifluoromethyl)benzyl)oxy)-1,4-dihydroquinolone-3-carboxylate] | – | > 125 | – | 18.5 | > 32 | – | – | – | – | – | – | –
CCn1cc(C(=O)NCCOCCO)c(=O)c2cc(Cn3cnc4c3c(=O)n(C)c(=O)n4C)ccc21 [Compound 4b, 6-((1,3-Dimethyl-2,6-dioxo-1,2,3,6-tetrahydro-7H-purin-7-yl)methyl)-1-ethyl-N-(2-(2-hydroxyethoxy)ethyl)-4-oxo-1,4-dihydroquinolone-3-carboxamide] | – | > 125 | > 20 | > 20 | > 32 | – | – | – | – | – | – | –
CCn1cc(C(=O)OC)c(=O)c2cc(C(=O)/C=C/c3c(Cl)cccc3Cl)ccc21 [Compound 16, Methyl (E)-Methyl-6-(3-(2,6-dichlorophenyl)acryloyl)-1-ethyl-4-oxo-1,4-dihydroquinolone-3-carboxylate] | 0.9 (≈ 0.387 µg/mL) | 0.9 to 2 (≈ 0.387 to 0.861 µg/mL) | 11.7 | < 2 | > 32 | 1.5 | 247 to 249 | – | – | – | – | –
O=C(NCCNCCO)c1cn(Cc2ccccc2)c2cc(Cl)c(OCc3ccc(C(F)(F)F)cc3)cc2c1=O [Compound 8g, 1-Benzyl-7-chloro-N-(2-((2-hydroxyethyl)amino)ethyl)-4-oxo-6-((4-(trifluoromethyl)benzyl)oxy)-1,4-dihydroquinolone-3-carboxamide] | 0.9 (≈ 0.517 µg/mL) | 0.9 to 2 (≈ 0.517 to 1.15 µg/mL) | 0.4 | – | > 32 | – | – | 0.46 | 32 (≈ 55.7 µM) | moderate to poor activity; also recorded: moderate to weak, narrow spectrum activity | – | –
Nc1ccc2c(c1)c(=O)c(C(=O)NCCOCCO)cn2Cc1ccccc1 [Compound 14, 6-Amino-1-benzyl-N-(2-(2-hydroxyethoxy)ethyl)-4-oxo-1,4-dihydroquinolone-3-carboxamide] | >125 | > 125 | > 20 | > 20 | > 32 | – | – | – | – | – | complete loss of antiplasmodial activity | –
CCOC(=O)c1cn(Cc2ccccc2)c2ccc(Cn3cnc4c3c(=O)n(C)c(=O)n4C)cc2c1=O [Compound 3c, Ethyl 1-benzyl-6-((1,3-dimethyl-2,6-dioxo-1,2,3,6-tetrahydro-7H-purin-7-yl)methyl)-4-oxo-1,4-dihydroquinolone-3-carboxylate] | – | > 125 | > 20 | 14.5 | > 32 | – | – | – | – | – | – | –
CCn1cc(C(=O)NCCNCCO)c(=O)c2cc(Cn3cnc4c3c(=O)n(C)c(=O)n4C)ccc21 [Compound 4a, 6-((1,3-Dimethyl-2,6-dioxo-1,2,3,6-tetrahydro-7H-purin-7-yl)methyl)-1-ethyl-N-(2-((2-hydroxyethyl)amino)ethyl)-4-oxo-1,4-dihydroquinolone-3-carboxamide] | >125 | > 125 | > 20 | > 20 | > 32 | – | – | – | – | – | – | –
CCn1cc(C(=O)NCCOCCO)c(=O)c2cc(OCc3ccc(C(F)(F)F)cc3)ccc21 [Compound 8a, 1-Ethyl-N-(2-(2-hydroxyethoxy)ethyl)-4-oxo-6-((4-(trifluoromethyl)benzyl)oxy)-1,4-dihydroquinolone-3-carboxamide] | – | 7.8 (≈ 3.73 µg/mL) | < 10 | 14.1 | > 32 | – | – | 6.8 | – | – | – | –
Cn1c(=O)c2c(ncn2Cc2ccc3c(c2)c(=O)c(C(=O)NCCNCCO)cn3Cc2ccccc2)n(C)c1=O [Compound 4d, 1-Benzyl-6-((1,3-dimethyl-2,6-dioxo-1,2,3,6-tetrahydro-7H-purin-7-yl)methyl)-N-(2-((2-hydroxyethyl)amino)ethyl)-4-oxo-1,4-dihydroquinolone-3-carboxamide] | – | 7.9 (≈ 4.41 µg/mL) | ≥ 25 | > 20 | > 32 | – | – | > 20 | – | – | – | –
Cn1c(=O)c2c(ncn2Cc2ccc3c(c2)c(=O)c(C(=O)NCCOCCO)cn3Cc2ccccc2)n(C)c1=O [Compound 4e, 1-Benzyl-6-((1,3-dimethyl-2,6-dioxo-1,2,3,6-tetrahydro-7H-purin-7-yl)methyl)-N-(2-(2-hydroxyethoxy)ethyl)-4-oxo-1,4-dihydroquinolone-3-carboxamide] | – | > 125 | ≥ 25 | 26.8 | > 32 | – | – | > 20 | – | – | – | –
COCCNC(=O)c1cn(Cc2ccccc2)c2ccc(Cn3cnc4c3c(=O)n(C)c(=O)n4C)cc2c1=O [Compound 4f, 1-Benzyl-6-((1,3-dimethyl-2,6-dioxo-1,2,3,6-tetrahydro-7H-purin-7-yl)methyl)-N-(2-methoxyethyl)-4-oxo-1,4-dihydroquinolone-3-carboxamide] | – | > 125 | > 20 | > 20 | > 32 | – | – | – | – | – | – | –
CCn1cc(C(=O)NCCOCCO)c(=O)c2cc(OCc3ccc(C(F)(F)F)cc3)c(Cl)cc21 [Compound 8d, 7-Chloro-1-ethyl-N-(2-(2-hydroxyethoxy)ethyl)-4-oxo-6-((4-(trifluoromethyl)benzyl)oxy)-1,4-dihydroquinolone-3-carboxamide] | – | > 125 | > 20 | > 20 | > 32 | – | – | – | – | – | – | –
CCOC(=O)c1cn(CC)c2ccc([N+](=O)[O-])cc2c1=O [Compound 11, Ethyl 1-ethyl-6-nitro-4-oxo-1,4-dihydroquinolone-3-carboxylate] | – | 31.3 (≈ 9.09 µg/mL) | > 20 | > 20 | > 32 | – | – | – | – | – | – | –
CCOC(=O)c1cn(Cc2ccc(Br)cc2)c2ccc(Cn3cnc4c3c(=O)n(C)c(=O)n4C)cc2c1=O [Compound 3d, Ethyl 1-(4-bromobenzyl)-6-((1,3-dimethyl-2,6-dioxo-1,2,3,6-tetrahydro-7H-purin-7-yl)methyl)-4-oxo-1,4-dihydroquinolone-3-carboxylate] | – | 15.6 (≈ 9.02 µg/mL) | 13.6 | 21.6 | > 32 | – | – | – | – | – | – | –
CCOC(=O)c1cn(CC)c2ccc(Cn3cnc4c3c(=O)n(C)c(=O)n4C)cc2c1=O [Compound 3a, Ethyl 6-((1,3-dimethyl-2,6-dioxo-1,2,3,6-tetrahydro-7H-purin-7-yl)methyl)-1-ethyl-4-oxo-1,4-dihydroquinolone-3-carboxylate] | >125 | > 125 | > 20 | > 20 | > 32 | – | – | – | – | – | – | –
Cn1c(=O)c2c(ncn2Cc2ccc3c(c2)c(=O)c(C(=O)NCCNCCO)cn3Cc2ccc(Br)cc2)n(C)c1=O [Compound 4g, 1-(4-Bromobenzyl)-6-((1,3-dimethyl-2,6-dioxo-1,2,3,6-tetrahydro-7H-purin-7-yl)methyl)-N-(2-((2-hydroxyethyl)amino)ethyl)-4-oxo-1,4-dihydroquinolone-3-carboxamide] | – | 7.9 (≈ 5.03 µg/mL) | – | > 20 | > 32 | – | – | – | – | – | – | –
CCOC(=O)c1cn(Cc2ccccc2)c2ccc(/N=C/c3ccc([N+](=O)[O-])o3)cc2c1=O [Compound 13, Ethyl-1-benzyl-6-(((5-nitrofuran-2-yl)methylene)amino)-4-oxo-1,4-dihydroquinolone-3-carboxylate] | 8.0 (≈ 3.56 µg/mL) | 8 (≈ 3.56 µg/mL) | < 10 | 5.2 | > 32 | – | – | 6.5 | – | moderate to poor activity; also recorded: moderate to weak, narrow spectrum activity | – | 16 (≈ 35.9 µM)
O=C(NCCOCCO)c1cn(Cc2ccccc2)c2cc(Cl)c(OCc3ccc(C(F)(F)F)cc3)cc2c1=O [Compound 8h, 1-Benzyl-7-chloro-N-(2-(2-hydroxyethoxy)ethyl)-4-oxo-6-((4-(trifluoromethyl)benzyl)oxy)-1,4-dihydroquinolone-3-carboxamide] | – | 16 (≈ 9.2 µg/mL) | > 20 | > 20 | > 32 | – | – | – | – | – | – | –
CCn1cc(C(=O)NCCNCCO)c(=O)c2cc(OCc3ccc(C(F)(F)F)cc3)c(Cl)cc21 [Compound 8c, 7-Chloro-1-ethyl-N-(2-((2-hydroxyethyl)amino)ethyl)-4-oxo-6-((4-(trifluoromethyl)benzyl)oxy)-1,4-dihydroquinolone-3-carboxamide] | – | – | – | < 2 | > 32 | 1.5 | – | – | 16 (≈ 31.3 µM) | moderate to poor activity; also recorded: moderate to weak, narrow spectrum activity | – | 32 (≈ 62.5 µM)
